Measured values as given in patent publication US20050170437A1, “Methods and compositions relating to modulating amyloid precursor protein cleavage” (The General Hospital Corporation, priority 2003, published 2005).
“Also recorded” adds a separate entry of the source. Where two headings read alike, the source gives them in different places. Where a SMILES comes first, the peptide text is derived from it. [ ]: non-standard residue; d: D form. The star is where a group is joined. Nle = CCCC[C@H](N)C(=O)O; Cbz = O=C(OCc1ccccc1)*

Experiments:
[1] = system: APP; assay: Western blot analysis of APP C-terminal fragments (C99, C83, C470, ~55/~85-kDa CTFs) in AC29 cells stably transfected with APP; format: cell-based, human; set-up: steady state levels of C99 / APP-CTF levels (C99, C83, C470) compared with ALLN results: dose or concentration left out as unconfirmed
Protocol: Wild-type (WT) and cholesterol mutant (AC29 and 25RA) CHO cell lines were grown in Dulbecco's Modified Eagle Medium (DMEM) and Nutrient Mixture F-12 Ham (Sigma-Aldrich, St. Louis, Mo.), respectively. Media were supplemented with 10% (v/v) FBS (Atlanta Biologicals, Norcross, Ga.), 1% (v/v) L-Glutamine-Penicillin-Streptomycin solution (Sigma-Aldrich), and 0.4% (v/v) G418 Sulfate (Calbiochem, La Jolla, Calif.) as selection marker for cells stably transfected with cDNA constructs expressing APP751 or APP(ES/AA), and hygromycin for […]-[…] in a […] TOPO expression vector (Invitrogen, Carlsbad, Calif.). Cells were cultured at 37° C. in a water-saturated air/CO2 atmosphere. The following antibodies against APP were used throughout this study: 22C11 (monoclonal, against N-terminus; Chemicon International, Temecula, Calif.); 369 (monoclonal, against C-terminus; generous gift from Dr. Sam Gandy, Farber Institute for Neuroscience, Thomas Jefferson University, Philadelphia, Pa.); C7 and C8 (against C-terminus; generous gift from Dr. Dennis J. Selkoe, Harvard Medical School, Boston, Mass.); 4G8 (monoclonal, against […]β; Endogen, Woburn, Mass.); 6E10 (monoclonal, against residues 1-17 of Aβ; Senetek, St. Louis, Mo.). Antibodies against calreticulin (ER marker), GM130 (Golgi marker), and EEA-1 (early endosomes) were obtained from StressGen Biotechnologies Corp. (Victoria BC, Canada) and Transduction Laboratories (Lexington, Ky.). Anti-V5 antibody was from Invitrogen (Carlsbad, Calif.). Additional materials used in this study include the γ-secretase inhibitor DAPT (generous gift from Dr. Rudolph E. Tanzi, Massachusetts General Hospital, Charlestown, Mass.), the β-secretase inhibitor Z-VLL-CHO (Calbiochem, La Jolla, Calif.), ALLN (Calbiochem), lactacystin (Sigma-Aldrich), ammonium chloride (Sigma-Aldrich), chloroquine (Sigma-Aldrich), methyl-(3-cyclodextrin (Sigma-Aldrich), and mevastatin (Sigma).

[2] = system: AC29 cells; assay: Cholesterol determinations (intracellular FC and CE pools); format: cell-based; set-up: cholesterol levels: dose or concentration left out as unconfirmed; settings: AC29 cells stably transfected with APP
Protocol: For the determinations of intracellular pools of FC and CE, cells were first incubated ad equilibrium (for 3 days) in the presence of [^14C]Acetic acid (57.0 mCi/mmol) (Amersham Life Science, Elk Grove, Ill.), then washed twice in PBS and extracted in chloroform/methanol (2:1; v/v). The chloroform phase was dried, resuspended again in chloroform, and applied with standards to a Silica Gel-G (EM Science, Gibbstown, N.J.) Thin Layer Chromatography (TLC). Plates were developed in hexane/ethyl ether/acetic acid (87:20:1, v/v) and visualized with […]. Spots were scraped and counted in a liquid scintillation counter.

[3] = system: AC29 cells; assay: Cell viability by release of lactate-dehydrogenase (LDH) into the media; format: cell-based; settings: mβ-CD for 24 hours
Protocol: To establish whether the generation of the 55- and 85-kDa APP-CTFs was affected by FC in the absence of changes in CEs, we depleted AC29 cells of cholesterol using a combination of methyl β-cyclodextrin (m#-CD), a sterol-binding molecule, and mevastatin, an HMG-CoA reductase inhibitor. In our studies, mβ-CD was used for 24 hours to allow for cellular cholesterol to reach equilibrium. Cell viability was not affected, as assessed by the release of the cytosolic enzyme lactate-dehydrogenase (LDH) into the media. […] However, it is important to note that normalized FC in AC29 cells only recovered 50% of the Aβ secreted by WT CHO cells (FIG. 2B), the other 50% still missing presumably due to the absence of CE synthesis in these cells. Both ˜55- and ˜85-kDa APP-CTFs were undetectable after successful normalization of FC (FIG. 2C).

[4] = target: APP (Homo sapiens, UniProt P05067); assay: In vitro assays of APP degradation by recombinant HtrA2; format: biochemical
APP (Homo sapiens, UniProt P05067), sequence (P05067 18-770): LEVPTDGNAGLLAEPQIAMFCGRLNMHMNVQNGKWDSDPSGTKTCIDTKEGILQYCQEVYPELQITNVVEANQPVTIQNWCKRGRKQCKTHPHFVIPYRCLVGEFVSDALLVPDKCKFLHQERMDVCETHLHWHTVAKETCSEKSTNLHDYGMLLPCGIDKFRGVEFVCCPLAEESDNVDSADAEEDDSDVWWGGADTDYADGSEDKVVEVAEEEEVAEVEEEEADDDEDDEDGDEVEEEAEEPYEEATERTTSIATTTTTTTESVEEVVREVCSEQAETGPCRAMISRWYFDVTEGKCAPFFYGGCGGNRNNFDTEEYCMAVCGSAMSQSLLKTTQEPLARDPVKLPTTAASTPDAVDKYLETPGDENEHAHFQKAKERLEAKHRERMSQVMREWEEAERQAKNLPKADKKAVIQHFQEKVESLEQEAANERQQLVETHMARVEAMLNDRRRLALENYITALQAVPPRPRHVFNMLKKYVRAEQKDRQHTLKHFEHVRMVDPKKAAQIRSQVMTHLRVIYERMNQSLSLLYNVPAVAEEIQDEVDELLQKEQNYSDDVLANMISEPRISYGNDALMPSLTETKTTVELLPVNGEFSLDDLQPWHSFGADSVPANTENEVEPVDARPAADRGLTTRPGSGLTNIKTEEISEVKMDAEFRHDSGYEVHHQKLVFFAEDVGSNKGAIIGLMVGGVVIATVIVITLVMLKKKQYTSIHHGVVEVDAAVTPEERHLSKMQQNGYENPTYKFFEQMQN
Source text: We determined that HtrA2 could serve as a chaperone binding to APP that under cellular stress could switch from chaperone to a protease that degrades misfolded APP. AC29 cells have elevated free (membrane) cholesterol level that may cause ER stress. In AC29 cells, levels of mature form of HtrA2 were elevated in the ER and Golgi as compared to the parental CHO cells (FIG. 10). Furthermore, HtrA2 localized to the cell surface in AC29 cells but not in the parental CHO cells (FIG. 11). Also we determined that HtrA2 co-purified with APP from mammalian cells (FIG. 10) and also co-immunoprecipitated with APP. In in vitro assays, recombinant HtrA2 degraded APP.

## Cl.N [ammonium chloride]
[1]; ammonium chloride (NH4Cl, 10 mM)
  steady-state levels of C470: no effect; also recorded: did not affect

## CCN(CC)CCCC(C)Nc1ccnc2cc(Cl)ccc12 (stereo not shown) [chloroquine]
[1]
  steady-state levels of C470: no effect; also recorded: did not affect

## CC(C)C[C@@H](C=O)NC(=O)[C@H](CC(C)C)NC(=O)[C@@H](NC(=O)OCc1ccccc1)C(C)C [Z-VLL-CHO] (Cbz-Val-Leu-Leu-aldehyde)
[1]; Z-VLL-CHO (0.5 mM) alone, 24 hours
  increase in steady-state levels of C470: not evident

## CCCC[C@@H](C=O)NC(=O)[C@H](CC(C)C)NC(=O)[C@H](CC(C)C)NC(C)=O [ALLN] (Ac-Leu-Leu-[Nle]-aldehyde)
[1]; alone, 24 hours
  steady state levels of C99: increased

## C[C@H](NC(=O)Cc1cc(F)cc(F)c1)C(=O)N[C@H](C(=O)OC(C)(C)C)c1ccccc1 [DAPT]
[1]; 250 nM DAPT, antibody C7
  C83 levels: increased

## CC[C@H](C)C(=O)O[C@H]1CCC=C2C=C[C@H](C)[C@H](CC[C@@H]3C[C@@H](O)CC(=O)O3)[C@H]21 [Mevastatin, mevastatin]
[2]
  cholesterol levels: did not induce significant changes

## CC(=O)N[C@@H](CSC(=O)[C@]1([C@@H](O)C(C)C)NC(=O)[C@H](C)[C@@H]1O)C(=O)O [lactacystin]
[1]; lactacystin instead of ALLN, with or without Z-VLL-CHO, 24 hours
  APP-CTF levels (C99, C83, C470) compared with ALLN results: Very similar results

## methyl β-cyclodextrin [mβ-CD]
[2]; mβ-CD (1 mM) alone
  FC levels: reduced, but did not normalize; also recorded: reduce but did not normalize
[3]
  Cell viability (LDH release into the media): not affected

B1: recombinant HtrA2: serine protease containing a PDZ domain; protein with ζ cleavage activity (protein, UniProt O43464 134-458, looked up)
Serine protease HTRA2, …: AVPSPPPASPRSQYNFIADVVEKTAPAVVYIEILDRHPFLGREVPISNGSGFVVAADGLIVTNAHVVADRRRVRVRLLSGDTYEAVVTAVDPVADIATLRIQTKEPLPTLPLGRSADVRQGEFVVAMGSPFALQNTITSGIVSSAQRPARDLGLPQTNVEYIQTDAAIDFGNSGGPLVNLDGEVIGVNTMKVTAGISFAIPSDRLREFLHRGEKKNSSSGISGSQRRYIGVMMLTLSPSILAELQLREPSFPDVQHGVLIHKVILGSPAHRAGLRPGDVILAIGEQMVQNAEDVYEAVRTQSQLAVQIRRGRETLTLYVTPEVTE
[4]
  degradation of APP: degraded APP
